PMC7521041 (Current Genomics, 2020)

Molecular target: T1, Alr0765 (Nostoc sp. PCC 7120 = FACHB-418, UniProt A0ACD7RPC9)
T1 sequence (A0ACD7RPC9 1-204): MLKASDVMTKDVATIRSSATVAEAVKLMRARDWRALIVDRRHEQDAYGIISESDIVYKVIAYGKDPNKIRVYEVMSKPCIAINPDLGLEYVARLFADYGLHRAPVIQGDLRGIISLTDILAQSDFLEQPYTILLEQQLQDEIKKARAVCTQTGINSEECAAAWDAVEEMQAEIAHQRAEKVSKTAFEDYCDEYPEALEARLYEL
Assay: FTIR amide I conformational change
Assay type: binding
Details: 3 mM ligand, 1.3 mM protein, pH 8.0, 25 C

SMILES	FTIR amide I conformational change
NC(=O)C1=CN([C@@H]2O[C@H](COP(=O)(O)OP(=O)(O)OC[C@H]3O[C@@H](n4cnc5c(N)ncnc54)[C@H](O)[C@@H]3O)[C@@H](O)[C@H]2O)C=CC1 [NADH]	Alr0765 binds with adenosyl ligands, which led to conformational changes
Nc1ncnc2c1ncn2[C@@H]1O[C@H](COP(=O)(O)OP(=O)(O)O)[C@@H](O)[C@H]1O [ADP]	Alr0765 binds with adenosyl ligands, which led to conformational changes
Nc1ncnc2c1ncn2[C@@H]1O[C@H](COP(=O)(O)O)[C@@H](O)[C@H]1O [AMP]	Alr0765 binds with adenosyl ligands, which led to conformational changes
